Values quoted from earlier work, collected in patent US20250195566A1, “ORAL PHARMACEUTICAL COMPOSITION FOR PREVENTING AND/OR TREATING DISEASES OF THE SOFT AND HARD TISSUES SURROUNDING THE TOOTH IN THE ORAL CAVITY” (priority 2021, published 2025).

Assays:
[1] = tested on: supragingival bacterial plaque and gingival inflammation; conditions: clinical results
[2] = tested on: 52 bacteria isolated from subgingival plaque; conditions: bacteria isolated from patients with periodontitis

## N=C(NCCCCCCNC(=N)NC(=N)Nc1ccc(Cl)cc1)NC(=N)Nc1ccc(Cl)cc1 [chlorhexidine, Chlorhexidine]
[1]
  reduction of gingival inflammation: 45%
  reduction of supragingival bacterial plaque: 55%
[2]
  concentration at which all bacteria were inhibited: 250 mg/mL
